The values below come from US6211209A, “Method of inhibiting connective tissue degradation” (Warner-Lambert Company, priority 1998, dated 2001).

Molecules are shown by their SMILES.

The test system of one assay is 72 kDa gelatinase. The assay is described as follows: Gelatin zymography of bovine nasal cartilage conditioned media: expression of 72 kDa gelatinase. As to conditions: various concentrations, FIG. 1. The format is cell-based. On the procedure: (§1) To evaluate the effects of the compounds of the present invention on the expression of 72 kDa and 92 kDa gelatinases, samples obtained from the bovine nasal cartilage study (described above) were subjected to gelatin zymography.
(§2) Separating gels (8%) were made by combining 400 μL gelatin (25 mg/mL) with: 2.5 mL Tris (1.5 M); 100 μL SDS (10%); 2.6 mL acrylamide (30%); 10 μL TEMED; 4.6 mL dH2 O; 100 μL ammonium persulfate (10%). Stacking gels (4.5%) were formed by combining: 2.5 mL Tris (0.5 M); 100 μL SDS (10%); 1.5 mL acrylamide (30%); 10 μL TEMED; 5.8 mL dH2 O; 100 μL ammonium persulfate (10%).
(§3) Bovine nasal cartilage conditioned media was diluted (1:15) using sample buffer 1X (2% SDS, 15% glycerol, 0.01% bromophenol blue, 0.25M Trizma Base, pH 6.8). Thirty microliters of each of the diluted samples and molecular weight standards were subjected to electrophoresis at 4° C. under constant current conditions (20 mA of current/gel) using Tris/Glycine running buffer (0.5 M Trizma Base, pH 8.8 using glycine, 1% SDS) that was diluted 1:20 before use.
After completion of the electrophoretic procedure, the gel was first washed twice for 15 minutes in 2.5% Triton X-100. The gel was then rinsed with the gel incubation buffer (0.05 M Tris, pH 8.2, 0.005 M CaCl2, 0.5 μM ZnCl2) and incubated overnight in this buffer at 37° C. […]
For `Cc1ccc(Cl)c(Nc2ccccc2C=C2SC(=S)NC2=O)c1Cl` [Compound 11, 5-[2-(2,6-Dichloro-3-methyl-phenylamino)-benzylidene]-2-thioxo-thiazolidin-4-one], the “effect on expression of 72 kDa gelatinase” value was “no effect on expression of 72 kDa gelatinase”.

The subject of a further assay is 92 kDa gelatinase. The experiment in a line: Gelatin zymography of bovine nasal cartilage conditioned media: expression of 92 kDa gelatinase. The format is cell-based. As to conditions: various concentrations, IL-1β-induced, FIG. 1. On the procedure:
as §1, §2, §3
After completion of the electrophoretic procedure, the gel was first washed twice for 15 minutes in 2.5% Triton X-100. The gel was then rinsed with the gel incubation buffer (0.05 M Tris, pH 8.2, 0.005 M CaCl2, 0.5 μM ZnCl2) and incubated overnight in this buffer at 37° C. After the incubation period, the gel was stained for 30 minutes in 0.125% Coomassie and destained using 10% methanol/5% acetic acid destaining solution.
`Cc1ccc(Cl)c(Nc2ccccc2C=C2SC(=S)NC2=O)c1Cl` [Compound 11, 5-[2-(2,6-Dichloro-3-methyl-phenylamino)-benzylidene]-2-thioxo-thiazolidin-4-one]: the “inhibiting expression of IL-1β-induced 92 kDa gelatinase” value is given as “effective in inhibiting expression of IL-1β-induced 92 kDa gelatinase in a dose-dependent manner”.

The assay is the same for the next values; noted with them: versus 72 kDa gelatinase.
Regarding `Cc1ccc(Cl)c(Nc2ccccc2C=C2SC(=S)NC2=O)c1Cl` [Compound 11, 5-[2-(2,6-Dichloro-3-methyl-phenylamino)-benzylidene]-2-thioxo-thiazolidin-4-one], the “specificity of effects (92 kDa versus 72 kDa gelatinase)” value is “specific to 92 kDa”.

For another assay, the system named is bovine nasal cartilage. The assay is described as follows: Bovine nasal cartilage assay: inhibition of IL-1β-induced proteoglycan loss (chondroitin sulfate by 1,9 DMB). The format is cell-based. As to conditions: Bos taurus; concentration preventing 50% of proteoglycan loss; IL-1β-stimulated cartilage plugs. On the procedure:
The BNC (bovine nasal cartilage) assay provides a model for evaluating chrondroprotective compounds that block cartilage degradation through inhibition of enzyme activity or by altering the gene expression of the matrix metalloproteinases such as stromelysin.
The assay is accomplished in two phases. The cartilage plugs are first incubated with IL-1β in the presence of the compounds of the present method. The amount of proteoglycan released is then quantified by measuring chondroitin sulfate present in the media using the 1,9-Dimethylmethylene Blue Assay (1,9 DMB).
Bovine nasal septum is dissected free of surrounding tissue and wiped with 70% alcohol. A sterile cork borer is used to remove 5-mm cartilage disks of 2- to 3-mm thickness. Explants are equilibrated for 96 hours in F-12 supplemented with 10% fetal calf serum (FCS) and antibiotics at 37° C. in a humidified atmosphere of 95% air and 5% CO2. Explants are then rinsed with 1 mL F-12 Nutrient Mixture (without phenol red) in order to remove traces of FCS. Each treatment group is done in triplicate allowing: controls (500 μL F-12 medium +110 μL PBS with 0.1% BSA +7 μL DMSO); IL-1β (500 μL F-12 medium without phenol red +100 μL IL-1β (500 U) +7 μL DMSO +10 μL PBS with 0.1% BSA); and dose responses (10, 1, and 0.1 μM) (F-12 medium without phenol red +100 μL IL-1β (500 U) +7 μL compound dissolved in DMSO +10 μL PBS with 0.1% BSA), to be tested per each 24-well plate. The cartilage plugs are incubated in the presence of conditioned media (IL-1β+compound) for 48 hours. Fresh unconditioned media (no IL-1β or compound) is added and incubated for an additional 24 hours. Both the conditioned and unconditioned media are collected and saved for analysis using the 1,9 DMB assay.
The ability of a compound to inhibit proteoglycan released from the cartilage plugs is quantified by measuring chondroitin sulfate. This is done using the calorimetric 1,9 DMB assay. Depending on the amount of chondroitin sulfate present in the media a color change will occur turning the normally deep blue dye, vivid pink. This color change is measured using a Titertek Multiscan MCC 340 plate reader at 540 nm. A Cetus Pro/Pette is used to speed dilution and pipetting steps. The Cetus uses Sarstedt vials, designed for radioimmune assays, which have been inserted into Sarstedt 96-vial aluminum racks. The first row of 12 slots is left empty in order to accommodate the chondroitin sulfate standards (0.01-0.32 μg/mL shark chondroitin sulfate in 0.1 M phosphate buffer, pH 7.0, containing 0.01 M L-cysteine HCl and 0.05 M EDTA). It is necessary to dilute (1:5, 1:10) the medium before a […] is performed by adding 10 μL of collected media to 290 μL DMF (16 mg dye/1 L of 0.1 M formate buffer, pH 3.5, containing 5 mL ethanol) and reading at […]. Dilutions are performed on both the 48-hour and 72-hour media samples collected and saved earlier. Once the experiment has been completed, in order to determine the total amount of proteoglycan remaining in the plugs, they are subjected to papain digestion. Cartilage explants are digested in 20-mL glass scintillation vials by adding 50 μL papain in 1.0 mL cysteine buffer (0.01 M phosphate buffer, pH 7.0 containing 0.01 M L-cysteine HCl and 0.05 M EDTA). Digested material is diluted (1:60) and chondroitin sulfate values determined using the 1,9 DMB assay.
Determination of chondroitin sulfate in each sample is accomplished by subtracting the constant value determined from the linear regression performed on the standard curve, from the O.D. value for a particular well, and then dividing by the X coefficient calculated from the linear regression done on the standard curve. Each experimental well is split into two samples for determining chondroitin sulfate values, then the two are averaged. […]
The term IC50 denotes the concentration at which inhibition is half-maximal. Low values mean greater potency, high ones weaker potency. The compound `O=c1[nH]nc(-c2ccccc2Nc2ccccc2)o1` [Compound 2, 5-(2-Phenylamino-phenyl)-3H-[1,3,4]oxadiazol-2-one] gave an IC50 of 40.8 µM.

In the case of `Cc1cccc(Nc2ccccc2-c2n[nH]c(=S)o2)c1C` [Compound 3, 5-[2-(2,3-Dimethyl-phenylamino)-phenyl]-3H-[1,3,4]oxadiazole-2-thione], the concentration for half-maximal inhibition (IC50) stood at 31 µM.

The compound `Cc1ccc(Cl)c(Nc2ccccc2-c2n[nH]c(=S)o2)c1Cl` [Compound 4, 5-[2-(2,6-Dichloro-3-methyl-phenylamino)-phenyl]-3H-[1,3,4]oxadiazole-2-thione] had an IC50 of 26.8 µM.

Compound `Cc1ccc(Cl)c(Nc2ccccc2-c2n[nH]c(=S)[nH]2)c1Cl` [Compound 5, 5-[2-(2,6-Dichloro-3-methyl-phenylamino)-phenyl]-2,4-dihydro-[1,2,4]triazole-3-thione] yielded an IC50 of 9.9 µM.

Regarding `Cc1ccc(Cl)c(Nc2ccccc2C(=O)NNC(N)=S)c1Cl` [Compound 6, 2-[(2,6-dichloro-3-methylphenyl)amino]-,2-(aminothioxomethyl)hydrazide], 1.3 µM corresponded to half-maximal inhibition (IC50).

Compound `Cc1ccc(Cl)c(Nc2ccccc2-c2n[nH]c(=S)n2C)c1Cl` [Compound 8, 5-[2-(2,6-Dichloro-3-methyl-phenylamino)-phenyl]-4-methyl-2,4-dihydro-[1,2,4]triazole-3-thione] yielded a concentration for half-maximal inhibition (IC50) of 4.9 µM.

In turn, `CC(C)(C)c1cc(Nc2ccccc2-c2n[nH]c(=S)o2)cc(C(C)(C)C)c1O` [Compound 9, 5-[2-(3,5-Di-tert-butyl-4-hydroxy-phenylamino)-phenyl]-3H-[1,3,4]oxadiazole-2-thione] yielded an IC50 of 23.2 µM.

On to `CC(O)c1cccc(Nc2ccccc2-c2n[nH]c(=S)o2)c1Cl` (stereo not drawn) [Compound 10, 5-{2-[2-Chloro-3-(1-hydroxy-ethyl)-phenylamino]-phenyl}-3H-[1,3,4]oxadiazole-2-thione], for which the concentration for half-maximal inhibition (IC50) worked out at 18.9 µM.

Regarding `Cc1ccc(Cl)c(Nc2ccccc2C=C2SC(=S)NC2=O)c1Cl` [Compound 11, 5-[2-(2,6-Dichloro-3-methyl-phenylamino)-benzylidene]-2-thioxo-thiazolidin-4-one], the IC50 was found to be 1.3 µM.

Take `Cc1ccc(Cl)c(Nc2ccccc2-c2nnc(NC#N)s2)c1Cl` [Compound 12, Cyanamide, [5-[2-[(2,6-dichloro-3-methylphenyl)amino]phenyl]-1,3,4-thiadiazol-2-yl]-]: the midpoint of inhibition, the IC50, lay at 6.4 µM.

With `CCOC(=O)N(O)C(C)c1cccc(Nc2ccccc2-c2n[nH]c(=S)o2)c1Cl` (stereo not drawn) [Compound 13, Carbamic acid, [1-[2-chloro-3-[[2-(4,5-dihydro-5-thioxo-1,3,4-oxadiazol-2-yl)phenyl]amino]phenyl]ethyl]hydroxy-, ethyl ester], the IC50 amounted to 5.3 µM.

`Cc1ccc(Cl)c(Nc2ccccc2C=C2SC(=O)NC2=O)c1Cl` [Compound 15, 5-[2-(2,6-Dichloro-3-methyl-phenylamino)-benzylidene]-thiazolidine-2,4-dione] registered a concentration for half-maximal inhibition (IC50) of 4.5 µM.

For the compound `CNC(=O)N(O)C(C)c1cccc(Nc2ccccc2-c2n[nH]c(=S)o2)c1Cl` (stereo not drawn) [Compound 16, Urea, N-[1-[2-chloro-3-[[(4,5-dihydro-5-thioxo-1,3,4-oxadiazol-2-yl)phenyl]amino]phenyl]ethyl]-N-hydroxy-N'-methyl-], the IC50 was 1.4 µM.

With `Cc1ccc(Cl)c(Nc2ccccc2/C=C2\SC(NC#N)=NC2=O)c1Cl` [Compound 17, Cyanamide, [5-[[2-[(2,6-dichloro-3-methylphenyl)amino]phenyl]methylene]-4,5-dihydro-4-oxo-2-thiazolyl]-, (Z)-], the 50% inhibitory concentration (IC50) was 0.8 µM.

`Cc1ccc(Cl)c(Nc2ccccc2-c2nsc(NC#N)n2)c1Cl` [Compound 18, Cyanamide, [3-[2-[(2,6-dichloro-3-methylphenyi)amino]phenyl]-1,2,4-thiadiazol-5-yl]-] yielded an IC50 of 0.3 µM.
